Series [1] has as its system PGE2 production in mouse whole blood. Nature of the series: LPS stimulated PGE2 production by mouse whole blood. It is filed as cell-based. Here is the method:
Murine blood (C57/b16 male) was collected in heparinized collection tubes. The blood was diluted 0.5 times with cell culture medium without serum. 150 μl diluted blood was transferred into a 96-well microtiterplate. Silbinol™ was dissolved in DMSO and subsequently further diluted before adding to the cells in a concentration range of 0-25-50 μg/ml. Total amount of DMSO in the well was 0.1% DMSO. After 1 hour of preincubation of the mixture of blood cells and Silbinol™ or blood cells and 100 μM Ibuprofen™ at 37° C. in a humidified atmosphere containing 5% CO2, 1 μg/ml LPS was added and incubated for another 20 hours. Plates were centrifuged (5 minutes, 1200 rpm, SorvallRT7™) and supernatants are harvested and stored at −80° C. for further analysis.
PGE2 in the thawed supernatants was determined using the commercial enzyme immunoassay of Biotrak™ (Biotrak Amersham, Buckinghamshire, UK) according to the manufacturer's protocol 2.

The test system of the next series is hPBMCs. Nature of the series: Metabolic activity of PBMCs (succinate dehydrogenase activity). The note with it: lower dose range (Table 4), compared with PGE2 inhibition. It is filed as cell-based, human. Here is the method: Peripheral Blood Mononuclear Cells (PBMCs) isolated from buffy coats of human blood from 3 healthy donors were stored in liquid nitrogen using standard procedures. For each experiment, PBMCs were thawed, transferred into a 50 ml centrifuge tube (BD Falcon, Erembodegem Aalst, Belgium) and cell culture medium (RPNI-1640 containing 25 mM HEPES and 2 mM L-glutamine (Life-Technologies, Merelbeke, Belgium) and further enriched with 10% heat inactivated fetal calf serum (^hiFCS), 120 U/ml penicillin/streptomycin and 1.2 mM sodium pyruvate) was added in a drop-wise fashion. Subsequently cells were centrifuged for 5 minutes at 1200 rpm (Sorvall RT7™). Cells were washed with cell culture medium (two times) and counted using a coulter counter (Beckman Coulter, Fullerton, Calif., USA). Parallel, a microscopic viability check using trypan blue is performed. PBMCs were pipetted into a 96-well flat bottom microtiterplate (BD Falcon, Brembodegem Aalst, Belgium), 1.5×10^5 cells per well. […] Metabolic activity of the PBMCs with and without the presence of test compound was determined using the succinate dehydrogenase activity.

Series [2] concerns PGE2 production by hPBMCs. Nature of the series: PGE2 production by LPS stimulated hPBMCs (enzyme immunoassay). It is filed as cell-based, human. To be noted: for PGE2 production / effect on PGE2 production by hPBMCs (in words): after LPS stimulation; for IC50: Homo sapiens, read-out: estimated IC50 (PGE2 production by hPBMCs after LPS stimulation). Here is the method: Peripheral Blood Mononuclear Cells (PBMCs) isolated from buffy coats of human blood from 3 healthy donors were stored in liquid nitrogen using standard procedures. For each experiment, PBMCs were thawed, transferred into a 50 ml centrifuge tube (BD Falcon, Erembodegem Aalst, Belgium) and cell culture medium (RPNI-1640 containing 25 mM HEPES and 2 mM L-glutamine (Life-Technologies, Merelbeke, Belgium) and further enriched with 10% heat inactivated fetal calf serum (^hiFCS), 120 U/ml penicillin/streptomycin and 1.2 mM sodium pyruvate) was added in a drop-wise fashion. Subsequently cells were centrifuged for 5 minutes at 1200 rpm (Sorvall RT7™). Cells were washed with cell culture medium (two times) and counted using a coulter counter (Beckman Coulter, Fullerton, Calif., USA). Parallel, a microscopic viability check using trypan blue is performed. PBMCs were pipetted into a 96-well flat bottom microtiterplate (BD Falcon, Brembodegem Aalst, Belgium), 1.5×10^5 cells per well. Pterostilbene (Chromadex, Santa Anna, Calif., USA), Silbinol™ (Pterocarpus marsupium plant extract containing at least 5 wt. % pterostilbene based on dried weight; Sabinsa Corporation, Piscataway, USA) and resveratrol (Sigma, St. Louis, USA) were dissolved in dimethylsulfoxide (DMSO) and subsequently further diluted in cell culture medium and added to the cells in a concentration range (see below). DMSO concentration in the wells was 0.1%. Subsequently the cells were incubated for 1 hour at 37° C. in a humidified atmosphere containing 5% CO2. After 1 hour, lipopolysaccharide (LPS, E. Coli […], […]) was added and the cells were incubated for 20 hours at 37° C. in a humidified atmosphere containing 5% CO2. The supernatants were harvested 20 hours after incubation and stored at −80° C. until further analysis. Metabolic activity of the PBMCs with and without the presence of test compound was determined using the succinate dehydrogenase activity.
Concentrations of 3.12, 6.25, 12.5, 25 and 50 μg/ml of either Pterostilbene or Silbinol™ were tested to find the dose range of inhibitory activity (Table 1 and 2). Following the determination of the dose range with PGE2 production inhibitory activity, concentrations of 0, 2, 4, 8, 16 and 32 μg/ml Silbinol™ (Table 3) and 0, 0.037, 0.11, 0.33, 1 and 3 μM pterostilbene (Table 4) were tested.
For comparative purposes, the effects 0, 0.33, 1, 3, 9 and 27 μM resveratrol on PGE2 production by hPBMCs was determined (Table 5).
PGE2 in the thawed supernatants was measured using a commercial enzyme immunoassay (Biotrak Amersham, Buckinghamshire, UK) according to the manufacturer's protocol 2.

Here are results for three compounds from US20050038125A1, “Method for the treatment of arthritis and pain” (priority 2003, published 2005).

For orientation: IC50 means the midpoint of a concentration-inhibition curve.

Consider `CC(C)Cc1ccc(C(C)C(=O)O)cc1` (stereo not shown) [Ibuprofen], for which, in series [1] (100 μM, LPS stimulated mouse whole blood), the PGE2 production was 1709 pg/mL. Also, the “effect on PGE2 production in mouse whole blood (in words)” value in series [1] (LPS stimulated) is reported as “inhibit PGE2 production”.
Regarding `COc1cc(C=Cc2ccc(O)cc2)cc(OC)c1` [Pterostilbene, 4′-hydroxy-3,5-dimethoxystilbene], in the series with hPBMCs, the “metabolic activity of hPBMCs” value is “decrease, however to a much lesser extent”. Besides, the PGE2 production in series [2] (0.037 μM, Mean of donors A-C) was found to be 5434 pg/mL; in series [2] (0.037 μM, donor A), 5957 pg/mL; in series [2] (0.037 μM, donor B) it was 7788 pg/mL; in series [2] (0.037 μM, donor C), 2574 pg/mL; in series [2] (0.11 μM, Mean of donors A-C) it was 4494 pg/mL; in series [2] (0.11 μM, donor A), 5305 pg/mL. Further, the PGE2 production was 6930 pg/mL in series [2] (0.11 μM, donor B); 1248 pg/mL in series [2] (0.11 μM, donor C); 2589 pg/mL in series [2] (0.33 μM, Mean of donors A-C); 2786 pg/mL in series [2] (0.33 μM, donor A); 4782 pg/mL in series [2] (0.33 μM, donor B); 199 pg/mL in series [2] (0.33 μM, donor C). Also, the PGE2 production in series [2] (1 μM, Mean of donors A-C) was found to be 1879 pg/mL; in series [2] (1 μM, donor A), 2067 pg/mL; in series [2] (1 μM, donor B), 3570 pg/mL; in series [2] (3 μM, Mean of donors A-C), 691 pg/mL; in series [2] (3 μM, donor A), 280 pg/mL; in series [2] (3 μM, donor B), 1794 pg/mL. Besides, the PGE2 production in series [2] (3.12 μg/ml, Mean of donors A-C) came out at 39 pg/mL; in series [2] (3.12 μg/ml, donor B), 117 pg/mL; in series [2] (6.25 μg/ml, Mean of donors A-C), 9 pg/mL; in series [2] (6.25 μg/ml, donor A), 28 pg/mL; in series [2] (12.5 μg/ml, Mean of donors A-C) it was 2 pg/mL; in series [2] (12.5 μg/ml, donor B) it was 5 pg/mL. For the same compound, the PGE2 production in series [2] (25 μg/ml, Mean of donors A-C) worked out at 44 pg/mL; in series [2] (25 μg/ml, donor A), 63 pg/mL; in series [2] (25 μg/ml, donor B) it was 69 pg/mL; in series [2] (50 μg/ml, Mean of donors A-C), 269 pg/mL; in series [2] (50 μg/ml, donor A), 584 pg/mL; in series [2] (50 μg/ml, donor B), 222 pg/mL. Further, in series [2], the IC50 was 0.83 µM. In addition, the “effect on PGE2 production by hPBMCs (in words)” value in series [2] was “inhibit PGE2 production”.
Consider `Oc1ccc(C=Cc2cc(O)cc(O)c2)cc1` [Resveratrol, resveratrol, reference compound], for which the IC50 in series [2] was 4.7 µM. Also, the PGE2 production in series [2] (Table 5, 0.33 μM, Mean of donors A-C) amounted to 6717 pg/mL; in series [2] (Table 5, 0.33 μM, donor A), 8380 pg/mL; in series [2] (Table 5, 0.33 μM, donor B) it was 8060 pg/mL; in series [2] (Table 5, 0.33 μM, donor C) it was 3710 pg/mL; in series [2] (Table 5, 1 μM, Mean of donors A-C), 5601 pg/mL; in series [2] (Table 5, 1 μM, donor A), 6835 pg/mL. The PGE2 production is 7369 pg/mL in series [2] (Table 5, 1 μM, donor B); 2597 pg/mL in series [2] (Table 5, 1 μM, donor C); 2916 pg/mL in series [2] (Table 5, 3 μM, Mean of donors A-C); 3120 pg/mL in series [2] (Table 5, 3 μM, donor A); 5449 pg/mL in series [2] (Table 5, 3 μM, donor B); 178 pg/mL in series [2] (Table 5, 3 μM, donor C). In addition, the PGE2 production in series [2] (Table 5, 9 μM, Mean of donors A-C) was determined as 1383 pg/mL; in series [2] (Table 5, 9 μM, donor A), 1213 pg/mL; in series [2] (Table 5, 9 μM, donor B), 2936 pg/mL; in series [2] (Table 5, 27 μM, Mean of donors A-C), 1090 pg/mL; in series [2] (Table 5, 27 μM, donor A), 913 pg/mL; in series [2] (Table 5, 27 μM, donor B), 2355 pg/mL. Also, in series [2], the “effect on PGE2 production by hPBMCs (in words)” value is reported as “inhibit PGE2 production”.
